Test results taken from PubChem BioAssay (NCI).
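Following 48 hours of exposure in 96-well plates, responses at five concentrations were used to interpolate endpoints linearly. GI50: concentration for 50% inhibition of growth. Definition used: TGI = concentration required for complete inhibition of growth.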

How the values were obtained:
Assay in all cases: inhibition of tumour cell growth, NCI panel, 48 h
OVCAR-5 ovarian = test system: OVCAR-5 ovarian
HL-60(TB) leukemia = test system: HL-60(TB) leukemia
U251 CNS = test system: U251 CNS
UO-31 renal = test system: UO-31 renal
MDA-MB-435 = test system: MDA-MB-435
UACC-257 melanoma = test system: UACC-257 melanoma
OVCAR-4 ovarian = test system: OVCAR-4 ovarian
NCI-H522 lung = test system: NCI-H522 lung
HCT-15 colon = test system: HCT-15 colon
T-47D breast = test system: T-47D breast
NCI-H460 lung = test system: NCI-H460 lung
SN12C renal = test system: SN12C renal
OVCAR-3 ovarian = test system: OVCAR-3 ovarian
TK-10 renal = test system: TK-10 renal
MCF7 breast = test system: MCF7 breast
SF-539 CNS = test system: SF-539 CNS
SF-268 CNS = test system: SF-268 CNS
786-0 renal = test system: 786-0 renal
M14 melanoma = test system: M14 melanoma
DU-145 prostate = test system: DU-145 prostate
SW-620 colon = test system: SW-620 colon
NCI-H23 lung = test system: NCI-H23 lung
CAKI-1 renal = test system: CAKI-1 renal
SK-MEL-2 melanoma = test system: SK-MEL-2 melanoma
SK-OV-3 ovarian = test system: SK-OV-3 ovarian
IGROV1 ovarian = test system: IGROV1 ovarian
SNB-75 CNS = test system: SNB-75 CNS
ACHN renal = test system: ACHN renal
RPMI-8226 leukemia = test system: RPMI-8226 leukemia

What does the source list for `COc1ccc(/C=C(\C#N)n2nnc3c(F)cccc32)cc1`?
GI50 (OVCAR-5 ovarian): 840 nM; TGI (OVCAR-5 ovarian): 14000 nM; GI50 (HL-60(TB) leukemia): 229 nM; TGI (HL-60(TB) leukemia): 820 nM; GI50 (U251 CNS): 410 nM; TGI (U251 CNS): 17700 nM; GI50 (UO-31 renal): 573 nM; TGI (UO-31 renal): > 100000 nM; GI50 (MDA-MB-435): 52 nM; TGI (MDA-MB-435): 371 nM; GI50 (UACC-257 melanoma): 1160 nM; TGI (UACC-257 melanoma): > 100000 nM; GI50 (OVCAR-4 ovarian): > 28200 nM; TGI (OVCAR-4 ovarian): > 100000 nM; GI50 (NCI-H522 lung): 182 nM; GI50 (HCT-15 colon): 133 nM; TGI (HCT-15 colon): > 100000 nM; GI50 (T-47D breast): 1050 nM; TGI (T-47D breast): > 100000 nM; GI50 (NCI-H460 lung): 413 nM; TGI (NCI-H460 lung): > 100000 nM; GI50 (SN12C renal): 585 nM; TGI (SN12C renal): > 100000 nM; GI50 (OVCAR-3 ovarian): 283 nM; TGI (OVCAR-3 ovarian): 2530 nM; GI50 (TK-10 renal): 2730 nM; TGI (TK-10 renal): 29000 nM; GI50 (MCF7 breast): 715 nM; TGI (MCF7 breast): > 100000 nM; GI50 (SF-539 CNS): 322 nM; TGI (SF-539 CNS): 1480 nM; GI50 (SF-268 CNS): 1680 nM; TGI (SF-268 CNS): > 100000 nM; GI50 (786-0 renal): 607 nM; TGI (786-0 renal): > 51200 nM; GI50 (M14 melanoma): 245 nM; TGI (M14 melanoma): 1570 nM; GI50 (DU-145 prostate): 503 nM; TGI (DU-145 prostate): > 40200 nM; GI50 (SW-620 colon): 200 nM; TGI (SW-620 colon): > 100000 nM; GI50 (NCI-H23 lung): 508 nM; TGI (NCI-H23 lung): 12500 nM; GI50 (CAKI-1 renal): 122 nM; TGI (CAKI-1 renal): > 100000 nM; GI50 (SK-MEL-2 melanoma): 504 nM; TGI (SK-MEL-2 melanoma): > 49900 nM; GI50 (SK-OV-3 ovarian): 1050 nM; TGI (SK-OV-3 ovarian): > 90000 nM; GI50 (IGROV1 ovarian): 388 nM; TGI (IGROV1 ovarian): > 36900 nM; GI50 (SNB-75 CNS): 170 nM; TGI (SNB-75 CNS): 517 nM; GI50 (ACHN renal): 689 nM; TGI (ACHN renal): > 51600 nM; GI50 (RPMI-8226 leukemia): 409 nM; TGI (RPMI-8226 leukemia): > 100000 nM
